One assay deals with H1975 cells. The assay is described as follows: Cell inhibitory activity by MTT assay, H1975 cells. It is filed as cell-based. The settings on record: for IC50: cell growth, MTT assay, 72 hours; for Selective inhibitory activity against cell growth [IC50 (A431 cell)/IC50 (H1975 cell)]: ratio of MTT IC50 values. (In general: Tetrazolium assays rely on reduction of a dye to a coloured formazan, in cell work by metabolically active cells.)

The test system of a further assay is NIH3T3 cells. As to the kind of experiment: Toxicity test on NIH3T3 cells by MTT assay. The assay is classed as cell-based.
For another assay, the target named is wild-type EGFR kinase (Homo sapiens (Human), UniProt P00533). As to the kind of experiment: z'-lyte assay of inhibition activity on wild-type EGFR kinase. It is filed as biochemical. The settings on record: 10 μM ATP, 0.8 ng/μL kinase, read-out: EGFR WT (IC50/μM).
The target in assay [1] is EGFR phosphorylation in H1975 (EGFR T790M mutant) cells (Homo sapiens (Human), UniProt P00533, L858R/T790M). The assay is described as follows: Inhibition of EGFR phosphorylation in H1975 cells (ELISA). It is filed as cell-based. To be noted: for IC50: EGFR phosphorylation, ELISA, 1 h compound treatment, read-out: H1975 cell (IC50/μM); for Selective inhibitory activity against targets at the cell level [IC50 (A431 cell)/IC50 (H1975 cell)]: ratio of ELISA IC50 values. For orientation: ELISA stands for enzyme-linked immunosorbent assay.
Procedure: (§1) The reagents used in the following methods, the preparation methods of solutions, the cell treatment and the preparation steps of lysate were carried out according to the instructions of R&D DYC3570, R&D DYC1095E and R&D DYC1095BE.
(2) The compounds to be tested were diluted in accordance with the drug dilution method in the MTT assay. 10 μL of the diluted compound solution or diluted DMSO was added to the corresponding wells of the cell culture plate, and the final concentration of DMSO was 0.5% (V/V). The plate was cultured at 37° C. in 5% (v/v) CO2 for 1 h. The cell culture system treated with DMSO alone was used as cell control.
(3) The medium was removed and then 100 μL of cell lysis solution was added. The plate was sealed and placed in a refrigerator at −80° C. overnight. The cell lysis buffer was used as blank control.
The assay was conducted according to the instructions given in R&D DYC1095E or R&D DYC1095BE.
(5) 40 μL of cell lysis buffer and 60 μL of cell lysis solution were added and the plate was incubated at 25° C. with shaking for 2 hours.
(§2) (7) The detection antibody was diluted with the detection antibody diluent in the proportion specified in the instructions of the kit. 100 μL of the diluent antibody was added to each well and the plate was incubated at 25° C. with shaking in dark for 1 h.
(9) A reagent and B reagent in the TMB substrate (R&D DY999) were mixed in 1:1. 100 μL of the mixture was added to each well and incubated in dark at 25° C. with shaking for 20 min.
(11) The plate was read with a microplate reader (Thermo Multiskan K3). OD 450 values and OD570 values of the cell control, blank control, and drug treatment wells were measured. ODcell, ODblank and ODdrug treatment were obtained by subtracting the corresponding OD570 value from the OD 450 value of the same well.
2.3 Data Analysis Inhibition rate (%)=100%×(ODcell−ODdrug treatment)/(ODcell−ODblank)

The target in assay [2] is EGFR phosphorylation in A431 (EGFR wild-type) cells (Homo sapiens (Human), UniProt P00533). The assay is described as follows: Inhibition of EGFR phosphorylation in A431 cells (ELISA). It is filed as cell-based. The settings on record: 1 h compound treatment, EGF stimulation, read-out: A431 cell (IC50/μM).
Procedure: as §1
(2) The A431 cell culture medium was replaced with 90 μl of serum-free DMEM medium and the plate was cultured overnight.
(3) The compound to be tested was diluted according to the drug dilution method in MTT assay. 10 μL of the dilated compound solution or diluted DMSO was added to the corresponding wells of the cell culture plate, and the final concentration of DMSO was 0.5%. The plate was cultured at 37° C. in 5% CO2 for 1 hour. […] The cells without EGF and drugs were used as cell control, and the cells treated with EGF without drugs were used as EGF control.
(4) The medium was removed and then 100 μL, of the cell lysis solution was added. The plate was sealed and placed in a refrigerator at −80° C. overnight.
The assay was conducted according to the instructions given in R&D DYC3570E.
(5) 40 μL of cell lysis butler and 60 μL of cell lysis solution were added and the plate was incubated at 25° C. with shaking for 2 hours.
as §2
(9) A reagent and B reagent in TMB substrate (R&D DY999) were mixed in 1:1. 100 μL mixture was added to each well and incubated in dark at 25° C. with shaking tor 20 min.
(11) The plate was read with a microplate reader (Thermo Multiskan K3). OD 450 values and OD570 values of the cell control, blank control, and drug treatment wells were measured. ODEGF, ODdrug and ODcell were obtained by subtracting the corresponding OD570 value from the OD 450 value of the same well.
3.3 Data Analysis Inhibition rate (%)=100%×(ODEGF−ODdrug)/(ODEGF−ODcell)
The next assay concerns A431 cells. The assay is described as follows: Cell inhibitory activity by MTT assay, A431 cells. It is filed as cell-based. The settings on record: 72 hours.
The subject of assay [3] is T790M mutant cell line H1975. The settings on record: background statement; cited from earlier work.
[4] abbreviates: Homo sapiens, A-431, cell growth.

The source of these data is patent publication US9890168B2, “2,4-disubstituted 7H-pyrrolo[2,3-d]pyrimidine derivative, preparation method and medicinal use thereof” (Shanghai Haiyan Pharmaceutical Technology Co., Ltd., priority 2014, dated 2018).

Structures can show the parent of a compound that is named as a salt.

EGFR phosphorylation in A431 (EGFR wild-type) cells, sequence (P00533 25-1210): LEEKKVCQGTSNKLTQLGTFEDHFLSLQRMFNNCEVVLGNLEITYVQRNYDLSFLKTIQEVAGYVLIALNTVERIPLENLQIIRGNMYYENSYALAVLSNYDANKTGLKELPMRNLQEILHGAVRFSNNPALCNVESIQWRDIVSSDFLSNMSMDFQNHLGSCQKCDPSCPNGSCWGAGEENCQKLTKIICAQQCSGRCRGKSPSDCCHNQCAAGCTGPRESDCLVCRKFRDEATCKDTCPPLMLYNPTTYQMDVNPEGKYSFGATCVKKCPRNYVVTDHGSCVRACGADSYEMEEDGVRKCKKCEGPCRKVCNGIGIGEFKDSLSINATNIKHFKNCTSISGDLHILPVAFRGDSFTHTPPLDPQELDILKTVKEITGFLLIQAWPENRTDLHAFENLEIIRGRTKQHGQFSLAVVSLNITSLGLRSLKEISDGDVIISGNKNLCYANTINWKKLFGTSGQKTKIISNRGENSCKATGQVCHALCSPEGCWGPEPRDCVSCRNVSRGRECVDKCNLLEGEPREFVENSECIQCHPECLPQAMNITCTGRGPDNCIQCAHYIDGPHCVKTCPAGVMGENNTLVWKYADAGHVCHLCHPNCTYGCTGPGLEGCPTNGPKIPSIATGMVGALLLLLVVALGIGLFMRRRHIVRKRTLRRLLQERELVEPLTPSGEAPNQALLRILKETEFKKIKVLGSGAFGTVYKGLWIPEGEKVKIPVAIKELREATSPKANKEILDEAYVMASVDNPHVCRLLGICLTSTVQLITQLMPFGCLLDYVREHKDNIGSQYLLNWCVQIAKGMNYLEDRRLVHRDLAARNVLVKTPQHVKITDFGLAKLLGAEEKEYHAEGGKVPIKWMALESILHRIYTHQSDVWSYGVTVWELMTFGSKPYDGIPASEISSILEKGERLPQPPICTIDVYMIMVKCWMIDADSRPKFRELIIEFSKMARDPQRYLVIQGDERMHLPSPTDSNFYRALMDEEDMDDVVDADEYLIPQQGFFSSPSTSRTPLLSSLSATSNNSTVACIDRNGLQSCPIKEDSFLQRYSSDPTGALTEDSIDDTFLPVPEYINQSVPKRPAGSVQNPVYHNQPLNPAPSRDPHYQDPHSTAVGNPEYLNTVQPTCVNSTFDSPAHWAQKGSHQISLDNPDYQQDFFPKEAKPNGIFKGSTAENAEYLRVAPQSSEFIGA
wild-type EGFR kinase, sequence (P00533 25-1210): as above
EGFR phosphorylation in H1975 (EGFR T790M mutant) cells, sequence (P00533 25-1210 T790M/L858R): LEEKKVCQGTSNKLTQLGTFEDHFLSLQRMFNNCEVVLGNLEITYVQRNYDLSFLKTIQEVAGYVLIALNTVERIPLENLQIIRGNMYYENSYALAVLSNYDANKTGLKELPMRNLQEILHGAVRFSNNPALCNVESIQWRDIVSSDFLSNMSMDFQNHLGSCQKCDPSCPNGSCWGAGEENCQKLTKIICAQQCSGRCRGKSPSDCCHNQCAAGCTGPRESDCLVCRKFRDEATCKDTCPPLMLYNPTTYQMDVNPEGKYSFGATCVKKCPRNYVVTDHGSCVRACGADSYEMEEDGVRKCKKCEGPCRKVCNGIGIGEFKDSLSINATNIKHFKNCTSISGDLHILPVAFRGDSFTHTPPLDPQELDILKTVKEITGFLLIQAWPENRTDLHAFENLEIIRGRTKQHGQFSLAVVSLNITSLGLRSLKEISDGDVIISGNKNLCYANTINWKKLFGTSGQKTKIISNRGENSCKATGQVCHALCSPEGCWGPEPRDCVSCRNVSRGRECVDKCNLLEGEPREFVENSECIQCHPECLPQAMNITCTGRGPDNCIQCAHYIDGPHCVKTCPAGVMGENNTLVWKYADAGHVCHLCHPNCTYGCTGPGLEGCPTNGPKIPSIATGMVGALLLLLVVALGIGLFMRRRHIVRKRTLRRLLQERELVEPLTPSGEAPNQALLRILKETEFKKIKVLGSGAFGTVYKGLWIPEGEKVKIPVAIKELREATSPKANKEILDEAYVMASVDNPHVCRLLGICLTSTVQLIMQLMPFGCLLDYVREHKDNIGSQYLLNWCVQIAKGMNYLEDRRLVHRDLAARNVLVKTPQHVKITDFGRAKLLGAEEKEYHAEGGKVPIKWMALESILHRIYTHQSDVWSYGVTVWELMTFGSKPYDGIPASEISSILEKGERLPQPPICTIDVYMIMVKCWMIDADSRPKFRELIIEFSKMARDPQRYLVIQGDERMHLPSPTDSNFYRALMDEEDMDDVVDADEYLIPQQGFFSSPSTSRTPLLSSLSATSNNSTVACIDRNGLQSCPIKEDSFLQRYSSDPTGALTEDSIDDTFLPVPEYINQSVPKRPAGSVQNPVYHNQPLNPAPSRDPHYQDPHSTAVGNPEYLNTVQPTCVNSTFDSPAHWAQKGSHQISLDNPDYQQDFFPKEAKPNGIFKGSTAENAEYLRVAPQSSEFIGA
Procedure for NIH3T3 cells: After the first wash, 1.5 mL of trypsin/EDTA was added to digest the adherent cells until the cells detached. Then 3.5 mL of the culture medium was added to terminate the digestion. The digested cell suspension was transferred to a 15 mL centrifuge tube and centrifuged at 1300 rpm for 3 minutes. The supernatant was discarded and the cells were resuspended in fresh medium. The cells were then counted and diluted to the following concentrations: 27,800 cells per milliliter of H1975 cells, 33,300 cells per milliliter of A431 cells and NIH3T3 cells.
After the drug was added, the cells were incubated in an incubator for 72 hours. 10 μL of 5 mg/ml MTT (Sigma, M5655) solution was added to each well. The 96-well plate was then incubated in a 37° C. and 5% CO2 incubator for 4 h.
The plate was then centrifuged at 2000 rpm for 5 min. After the supernatant was removed, 150 μl of DMSO was added to each well and the plate was shaken in a shaker until all crystal violet was dissolved.
Procedure for wild-type EGFR kinase: All reagents used in the following z′-lyte assay were purchased from Invitrogen.
The working concentrations of each component in 10 μL wild-type EGER kinase reaction system were: 10 μM ATP, 0.8 ng/μL wild-type EGFR kinase, 2 μM Tyr04 substrate (Invitrogen, PV3193). The concentration of DMSO after addition of the compound to be tested was 2 vol %.
10 mM drug stock solution was dissolved at room temperature and diluted to a final concentration of 4-0.002 μM with 8 vol % DMSO solution. […] Then 2.5 μl of ATP was added to initiate the reaction. Wherein, ATP was replaced by the reaction buffer in C1 well, no drug was added to C2 well, and the phosphorylated substrate was added to C3 well according to the instructions. The mixture was allowed to react at 25° C. in a shaker in dark for 60 min, 5 μL of Development Reagent B (invitrogen, diluted with TR-FRET dilution buffer) was added and allowed to react at room temperature in the shaker for 60 minutes.
The inhibition rate was calculated according to the following method (refer to the instructions of Invitronen, PV3193):
1. ER=Coumarin Emission (450 nm)/Fluorescein Emission (520 mn)
3. Inhibition ratio (IR)=(1−(phospholylation ratio of the test compound)/(phosphorylation ratio of C2))×100%
The half-inhibitory concentration IC50 was obtained through fitting calculation by using XLFIT 5.0 software (IDBS, UK).

Turning to `CN(C)C/C=C/C(=O)Nc1cc2c(Nc3ccc(F)c(Cl)c3)ncnc2cc1O[C@H]1CCOC1` [BIBW2992, reference compound], the IC50 with H1975 cells (Homo sapiens, NCI-H1975) was 0.088 µM; in the assay with NIH3T3 cells (Mus musculus, NIH3T3, 72 hours), 2.75 µM.

For the compound `C=CC(=O)Nc1cc(Nc2nc(-c3cnn(C)c3)c3cc[nH]c3n2)c(OC)cc1N(C)CCN(C)C` [Compound 1, N-(2-((2-(dimethylamino)ethyl)(methyl)amino)-4-methoxy-5-(4(1-methyl-1H-pyrazol-4-yl)-7H-pyrrolo[2,3-d]pyrimidn-2-ylamino)phenyl)acrylamide], the IC50 is 0.393 µM on wild-type EGFR kinase; 0.112 µM in assay [1]; 3.67 µM in assay [2]; 0.043 µM with H1975 cells (Homo sapiens, NCI-H1975); 1.56 µM in the assay on A431 cells (setting [4]); above 10 µM in the assay on NIH3T3 cells (Mus musculus, NIH3T3, 72 hours). The “Selective inhibitory activity against targets at the cell level [IC50 (A431 cell)/IC50 (H1975 cell)]” value in assay [1] is given as 32.7. In addition, the “Selective inhibitory activity against cell growth [IC50 (A431 cell)/IC50 (H1975 cell)]” value in the assay on H1975 cells is on record as 36.3.

`C=CC(=O)Nc1cc(Nc2nc(N3CCOCC3)c3cc[nH]c3n2)c(OC)cc1N(C)CCN(C)C` [Compound 2, N-(2-((2-(dimethylamino)ethyl)(methyl)amino)-4-methoxy-5-(4-morpholino-7H-pyrrolo[2,3-d]pyrimidin-2-ylamino)phenyl)acrylamide]: the IC50 was above 1 µM on wild-type EGFR kinase; 0.322 µM in assay [1]; above 10 µM in assay [2]; 0.143 µM in the assay with H1975 cells (Homo sapiens, NCI-H1975); 4.01 µM in the assay with A431 cells (setting [4]); above 10 µM in the assay with NIH3T3 cells (Mus musculus, NIH3T3, 72 hours). Also, the “Selective inhibitory activity against targets at the cell level [IC50 (A431 cell)/IC50 (H1975 cell)]” value in assay [1] came to 31. Further, the “Selective inhibitory activity against cell growth [IC50 (A431 cell)/IC50 (H1975 cell)]” value in the assay on H1975 cells worked out at 28.

`C=CC(=O)Nc1cc(Nc2nc(OC3CN(S(C)(=O)=O)C3)c3cc[nH]c3n2)c(OC)cc1N(C)CCN(C)C` [Compound 3, N-(2-((2-(dimethylamino)ethyl)(methyl)amino)-4-methoxy-5-(4-(1-(methylsulfonyl)azetidin-3-yloxy)-7H-pyrrolo[2,3-d]pyrimidin-2-ylamino)phenyl)acryl amide]: the IC50 on wild-type EGFR kinase was 0.088 µM; in assay [1] it was 0.032 µM; in assay [2], 0.86 µM; in the assay on H1975 cells, 0.029 µM; with A431 cells (cell growth) it was 2.93 µM; in the assay on NIH3T3 cells (72 hours), above 10 µM. Besides, the “Selective inhibitory activity against targets at the cell level [IC50 (A431 cell)/IC50 (H1975 cell)]” value in assay [1] is 26.9. Besides, the “Selective inhibitory activity against cell growth [IC50 (A431 cell)/IC50 (H1975 cell)]” value in the assay with H1975 cells was found to be 101.

Consider `C=CC(=O)Nc1cc(Nc2nc(-c3cnc4c(ccn4C)c3)c3cc[nH]c3n2)c(OC)cc1N(C)CCN(C)C` [Compound 4, N-(2-((2-(dimethylamino)ethyl)(methyl)amino)-4-methoxy-5-(4-(1-methyl-1H-pyrrolo[2,3-b]pyridin-5-yl)-7H-pyrrolo[2,3-d]pyrimidin-2-ylamino)phenyl)acrylamide], for which the IC50 was 0.039 µM at wild-type EGFR kinase; 0.015 µM in assay [1]; 0.254 µM in assay [2]; 0.029 µM in the assay on H1975 cells (Homo sapiens, NCI-H1975); 1.12 µM in the assay with A431 cells (setting [4]); 2.09 µM in the assay with NIH3T3 cells (Mus musculus, NIH3T3, 72 hours). The “Selective inhibitory activity against targets at the cell level [IC50 (A431 cell)/IC50 (H1975 cell)]” value in assay [1] worked out at 17. The “Selective inhibitory activity against cell growth [IC50 (A431 cell)/IC50 (H1975 cell)]” value in the assay on H1975 cells stood at 38.7.

As for `C=CC(=O)Nc1cc(Nc2nc(-c3cn(C)c4ccccc34)c3cc[nH]c3n2)c(OC)cc1N(C)CCN(C)C` [Compound 5, N-(2-((2-(dimethylamino)ethyl)(methyl)amino)-4-methoxy-5-(4-(1-methyl-1H-indol-3-yl)-7H-pyrrolo[2,3-d]pyrimidin-2-ylamino)phenyl)acrylamide], the IC50 on wild-type EGFR kinase is 0.015 µM; in assay [1] it was 0.016 µM; in assay [2], 0.119 µM; in the assay with H1975 cells (Homo sapiens, NCI-H1975) it was 0.009 µM; with A431 cells (setting [4]), 0.308 µM; in the assay with NIH3T3 cells (Mus musculus, NIH3T3, 72 hours), 2.63 µM. For the same compound, the “Selective inhibitory activity against targets at the cell level [IC50 (A431 cell)/IC50 (H1975 cell)]” value in assay [1] is 7.4. The “Selective inhibitory activity against cell growth [IC50 (A431 cell)/IC50 (H1975 cell)]” value in the assay with H1975 cells came to 34.2.

As for `C=CC(=O)Nc1cc(Nc2nc(-c3cccnc3)c3cc[nH]c3n2)c(OC)cc1N(C)CCN(C)C` [Compound 6, N-(2-((2-(dimethylamino)ethyl)(methyl)amino)-4-methoxy-5-(4-(pyridin-3-yl)-7H-pyrrolo[2,3-d]pyrimidin-2ylamino)phenyl)acrylamide], the IC50 at wild-type EGFR kinase amounted to 0.347 µM; in assay [1] it was 0.096 µM; in assay [2], 1.67 µM; in the assay with H1975 cells (Homo sapiens, NCI-H1975) it was 0.079 µM; in the assay with A431 cells (setting [4]), 1.8 µM; with NIH3T3 cells (Mus musculus, NIH3T3, 72 hours), 5.1 µM. Also, in assay [1], the “Selective inhibitory activity against targets at the cell level [IC50 (A431 cell)/IC50 (H1975 cell)]” value is given as 17.4. For the same compound, in the assay with H1975 cells, the “Selective inhibitory activity against cell growth [IC50 (A431 cell)/IC50 (H1975 cell)]” value is 22.8.

With `C=CC(=O)Nc1cc(Nc2nc(-c3ccccc3)c3cc[nH]c3n2)c(OC)cc1N(C)CCN(C)C` [Compound 7, N-(2-((2-(dimethylamino)ethyl)(methyl)amino)-4-methoxy-5-(4-phenyl-7H-pyrrolo[2,3-d]pyrimidin-2-ylamino)phenyl)acrylamide], the IC50 at wild-type EGFR kinase was determined as 0.315 µM; in assay [1], 0.204 µM; in assay [2] it was 1.87 µM; in the assay with H1975 cells (Homo sapiens, NCI-H1975), 0.225 µM; with A431 cells (setting [4]) it was 1.69 µM; with NIH3T3 cells (Mus musculus, NIH3T3, 72 hours), 2.42 µM. Also, the “Selective inhibitory activity against targets at the cell level [IC50 (A431 cell)/IC50 (H1975 cell)]” value in assay [1] worked out at 9.2. Besides, the “Selective inhibitory activity against cell growth [IC50 (A431 cell)/IC50 (H1975 cell)]” value in the assay with H1975 cells came to 7.5.

For `C=CC(=O)Nc1cc(Nc2nc(-c3cnn(C)c3)c3cc[nH]c3n2)c(OC)cc1N1CCC(N(C)C)CC1` [Compound 9, N-(2-(4-(dimethylamino)piperidin-1-yl)-4-methoxy-5-(4-(1-methyl-1H-pyrazol-4-yl)-7H-pyrrolo[2,3-D]pyrimidin-2-ylamino)phenyl)acrylamide], the IC50 is above 1 µM on wild-type EGFR kinase; 0.384 µM in assay [1]; above 10 µM in assay [2]; 0.3 µM in the assay with H1975 cells (Homo sapiens, NCI-H1975); 4.34 µM with A431 cells (setting [4]); above 10 µM in the assay on NIH3T3 cells (Mus musculus, NIH3T3, 72 hours). In assay [1], the “Selective inhibitory activity against targets at the cell level [IC50 (A431 cell)/IC50 (H1975 cell)]” value is recorded as above 26. Moreover, the “Selective inhibitory activity against cell growth [IC50 (A431 cell)/IC50 (H1975 cell)]” value in the assay on H1975 cells is listed as 14.5.

Turning to `C=CC(=O)Nc1cc(Nc2nc(-c3cnn(C)c3)c3cc[nH]c3n2)c(OC)cc1OCCN(C)C` [Compound 10, N-(2-(2-(dimethylamino)etboxy)-4-methoxy-5-(4-(1-methyl-1H-pyrazol-4-yl)-7H-pyrrolo[2,3-d]pyrimidin-2-ylamino)phenyl)acrylamide], the IC50 in assay [1] was 0.166 µM; in assay [2], 8.98 µM; with H1975 cells (Homo sapiens, NCI-H1975), 0.112 µM; in the assay on A431 cells (setting [4]), 3.8 µM; with NIH3T3 cells (Mus musculus, NIH3T3, 72 hours), above 10 µM. Besides, the “Selective inhibitory activity against targets at the cell level [IC50 (A431 cell)/IC50 (H1975 cell)]” value in assay [1] is reported as 54.1. The “Selective inhibitory activity against cell growth [IC50 (A431 cell)/IC50 (H1975 cell)]” value in the assay with H1975 cells was found to be 34.

Turning to `C=CC(=O)Nc1cc(Nc2nc(-c3cnn(C)c3)c3cc[nH]c3n2)c(OC)cc1N1CC(N(C)C)C1` [Compound 11, N-(2-(3-(dimethylamino)azetidin-1-yl)-4-methoxy-5-(4-(1-methyl-1H-pyrazol-4-yl)-7H-pyrrolo[2,3-d]pyrimidin-2-ylamino)phenyl)acrylamide Formate], at wild-type EGFR kinase, the IC50 was above 1 µM.

Take `C=CC(=O)Nc1cc(Nc2nc(-c3cnn(C)c3)c3cc[nH]c3n2)c(OC)cc1N1CCN(C)CC1` [Compound 12, N-(4-methoxy-5-(4-(1-methyl-1H-pyrazol-4-yl)-7H-pyrrolo[2,3-d]pyrimidin-2-ylamino)-2-(4-methylpiperazin-1-yl)phenyl)acrylamide]: at wild-type EGFR kinase, the IC50 is above 1 µM.

For `C=CC(=O)Nc1cc(Nc2nc(-c3cnn(C)c3)c3c(Cl)c[nH]c3n2)c(OC)cc1N1CCC(N(C)C)CC1` [Compound 13, N-(5-(5-chloro-4-(1-methyl-1H-pyrazol-4-yl)-7H-pyrrolo[2,3-d]pyrimidin-2-ylamino)-2-(4(dimethylamino)piperidin-1-yl)-4-methoxyphenyl)acrylamide], the IC50 in the assay with H1975 cells (Homo sapiens, NCI-H1975) is 0.531 µM; in the assay on A431 cells (setting [4]), 3.04 µM; with NIH3T3 cells (Mus musculus, NIH3T3, 72 hours), above 10 µM.

For the compound `C#Cc1cccc(Nc2ncnc3cc(OCCOC)c(OCCOC)cc23)c1` [erlotinib], the “activity in the T790M mutant cell line H1975” value in assay [3] is given as “greater than 3 uM”.

Regarding `COc1cc2ncnc(Nc3ccc(F)c(Cl)c3)c2cc1OCCCN1CCOCC1` [gefitinib], in assay [3], the “activity in the T790M mutant cell line H1975” value is “greater than 3 uM”.
